Assay results published in US11738026B2, “Combination therapy comprising an ALK2 inhibitor and a JAK2 inhibitor” (INCYTE CORPORATION, priority 2019, dated 2023).

System: C57Bl/6 mice
Experiment: Turpentine-induced anemia in mice on low iron chow; complete blood counts
Format: in vivo
Description: C57Bl/6 mice (7-8-week-old, female) were purchased from Charles River Laboratories, Wilmington, Mass., and placed on low iron chow (Test Diet #AIN-76A 5TJK) two weeks prior to beginning study. Mice were continued on this diet through the course of the study. Mice were injected subcutaneously in the intrascapular region of the back of the recipient mouse with sterile filtered turpentine (Aldrich, cat #24245), or sterile saline in a 100 ul volume every week for three weeks. Therapeutic agents were orally administered at a total volume of 10 mL/kg body weight. Mice were administered vehicle (0.5% DMAC: […]) or compound (n=10 per dose group) starting shortly after the first turpentine injection (day 0), and continuing every day until the study termination. Blood was collected via by orbital sinus once weekly, and complete blood counts (CBCs) were determined by hematology instrumentation (Abaxis, model HM5). Statistical analyses were performed using Graphpad Prism software. Mice were handled according to Incyte IACUC protocols.
Together these experiments indicate that ALK2 inhibition can reverse the decreases in RBC counts, hemoglobin, and hematocrit brought on by turpentine generated, inflammation induced anemia, and this anti-anemia efficacy from ALK2 inhibition is possible in the presence of ruxolitinib.

[1] = 30 mg/kg BID, day 21 post first turpentine injection, FIG. 2, change statistically significant by unpaired t-test
[2] = 100 mg/kg QD, 28 days post first turpentine injection, FIG. 1
[3] = mice also dosed with ruxolitinib (90 mg/kg BID), FIG. 2 (Compound A 30 mg/kg BID)

Row | Compound | hematocrit [1] | hemoglobin [1] | red blood cell count [1] | hematocrit [2] | hemoglobin [2] | red blood cell count [2] | anemia brought on by turpentine (100 mg/kg QD, oral, daily from day 0, turpentine s.c. weekly for three weeks) | RBC [3] | hematocrit levels [3] | hemoglobin [3] | anemias brought on by turpentine injection (90 mg/kg BID, oral, in each experiment)
1 | Nc1ncc(-c2ccc([C@@]34C[C@@H]3CN(C3CCOCC3)C4)cc2)cc1C(=O)NC12CCC(O)(CC1)CC2 [Compound A, 2-amino-N-(4-hydroxybicyclo-[2.2.2]octan-1-yl)-5-(4-((1R,5S)-3-(tetrahydro-2H-pyran-4-yl)-3-azabicyclo-[3.1.0]hexan-1-yl)phenyl)nicotinamide] | the same trend was demonstrated | the same trend was demonstrated | the same trend was demonstrated | levels similar to saline (non-turpentine induced anemia) control | levels similar to saline (non-turpentine induced anemia) control | levels similar to saline (non-turpentine induced anemia) control | corrected the anemia brought on by turpentine | significant increases | significant increases | significant increases | –
2 | N#CC[C@H](C1CCCC1)n1cc(-c2ncnc3[nH]ccc23)cn1 [ruxolitinib, (R)-3-(4-(7H-pyrrolo[2,3-d]pyrimidin-4-yl)-1H-pyrazol-1-yl)-3-cyclopentylpropanenitrile, reference compound] | – | – | – | – | – | – | – | – | – | – | exacerbated the anemias
